The source of these data is PubChem BioAssay (NCI).

Molecules are shown by their SMILES.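 These data come from cells grown in 96-well plates and exposed to compound for 48 hours at five concentrations. TGI marks complete inhibition of growth.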

In the first experiment the test system is RPMI-8226 leukemia. In words: NCI anticancer screen, dose series, 48 h.
Consider `O=S1(=O)c2cnccc2NC(=NCc2cccc3ccccc23)N1c1ccccc1`, for which the TGI is over 76.6 µM.
Turning to `C[C@@]12C=CC3C/C(=N\C(N)=S)C=C(CCCC4OCCO4)[C@]3(CC1)C2` (stereo not given in full), the TGI was 50.8 µM.
Same read-out and setting: with `CCCCCC(=O)Nc1n[nH]nc1C(N)=O` the figure was over 100 µM.
The same measure, in the same setting: then `NC(=O)C(Nc1c(Cl)cccc1Cl)c1cc2cc(Br)ccc2nc1Cl` (stereo not given), with over 100 µM; and `COc1ccc(Br)c2c1CC(C(=O)O)CC2` (stereo not given), with over 100 µM.
`C/C(=N\N)C(CN(C)C)C(c1ccccc1)c1c(O)c2ccccc2oc1=O` (stereo not given) had a TGI of over 100 µM.
`COc1ccc(/C=C2/C(C)=NN(c3cccc(Cl)c3)/C2=N/c2nc3ccccc3s2)cc1` yielded a TGI of 66.6 µM.
Compound `Fc1cc(C2=C[C@H](c3ccc(Cl)cc3)NC(=S)N2)c(Cl)cc1Cl` showed a TGI of 56.2 µM.
The compound `CCCCc1ccc(Nc2nc(Cl)c3c(ncn3COCCOC(C)=O)n2)cc1` had a TGI of over 100 µM.

Another experiment deals with RXF 393 renal. In words: NCI anticancer screen, dose series, 48 h.
With `O=S1(=O)c2cnccc2NC(=NCc2cccc3ccccc23)N1c1ccccc1`, the TGI was over 90.4 µM.
`C[C@@]12C=CC3C/C(=N\C(N)=S)C=C(CCCC4OCCO4)[C@]3(CC1)C2` (stereo not given in full) showed a TGI of 31.7 µM.
Take `CCCCCC(=O)Nc1n[nH]nc1C(N)=O`: the TGI is over 100 µM.
Still for that read-out and setting: with `NC(=O)C(Nc1c(Cl)cccc1Cl)c1cc2cc(Br)ccc2nc1Cl` (stereo not given) the figure was over 100 µM.
As to `COc1ccc(Br)c2c1CC(C(=O)O)CC2` (stereo not given), the TGI is over 100 µM.
For `C/C(=N\N)C(CN(C)C)C(c1ccccc1)c1c(O)c2ccccc2oc1=O` (stereo not given), the TGI is over 100 µM.
In the case of `COc1ccc(/C=C2/C(C)=NN(c3cccc(Cl)c3)/C2=N/c2nc3ccccc3s2)cc1`, the TGI was 26.8 µM.
With `Fc1cc(C2=C[C@H](c3ccc(Cl)cc3)NC(=S)N2)c(Cl)cc1Cl`, the TGI was over 100 µM.
On to `CCCCc1ccc(Nc2nc(Cl)c3c(ncn3COCCOC(C)=O)n2)cc1`, for which the TGI was determined as 28.4 µM.

The next experiment has as its system SF-295 CNS. In words: NCI anticancer screen, dose series, 48 h.
Consider `O=S1(=O)c2cnccc2NC(=NCc2cccc3ccccc23)N1c1ccccc1`, for which the TGI was over 100 µM.
Same read-out and setting: with `C[C@@]12C=CC3C/C(=N\C(N)=S)C=C(CCCC4OCCO4)[C@]3(CC1)C2` (stereo not given in full) the figure was 88 µM; with `CCCCCC(=O)Nc1n[nH]nc1C(N)=O`, over 100 µM.
In turn, `NC(=O)C(Nc1c(Cl)cccc1Cl)c1cc2cc(Br)ccc2nc1Cl` (stereo not given) had a TGI of over 100 µM.
With `COc1ccc(Br)c2c1CC(C(=O)O)CC2` (stereo not given), the TGI was over 100 µM.
Turning to `C/C(=N\N)C(CN(C)C)C(c1ccccc1)c1c(O)c2ccccc2oc1=O` (stereo not given), the TGI is over 100 µM.
In the case of `COc1ccc(/C=C2/C(C)=NN(c3cccc(Cl)c3)/C2=N/c2nc3ccccc3s2)cc1`, the TGI amounted to 49.5 µM.
`Fc1cc(C2=C[C@H](c3ccc(Cl)cc3)NC(=S)N2)c(Cl)cc1Cl`: the TGI was over 100 µM.
The compound `CCCCc1ccc(Nc2nc(Cl)c3c(ncn3COCCOC(C)=O)n2)cc1` yielded a TGI of 28.2 µM.

For the next experiment, the system named is K-562 leukemia. In words: NCI anticancer screen, dose series, 48 h.
In the case of `O=S1(=O)c2cnccc2NC(=NCc2cccc3ccccc23)N1c1ccccc1`, the TGI is over 100 µM.
Regarding `C[C@@]12C=CC3C/C(=N\C(N)=S)C=C(CCCC4OCCO4)[C@]3(CC1)C2` (stereo not given in full), the TGI is over 100 µM.
The same measure, in the same setting: with `CCCCCC(=O)Nc1n[nH]nc1C(N)=O` the figure was over 100 µM.
Compound `NC(=O)C(Nc1c(Cl)cccc1Cl)c1cc2cc(Br)ccc2nc1Cl` (stereo not given) had a TGI of over 100 µM.
On to `COc1ccc(Br)c2c1CC(C(=O)O)CC2` (stereo not given), for which the TGI is over 100 µM.
In turn, `C/C(=N\N)C(CN(C)C)C(c1ccccc1)c1c(O)c2ccccc2oc1=O` (stereo not given) yielded a TGI of over 100 µM.
On the same count and under the same terms, then `COc1ccc(/C=C2/C(C)=NN(c3cccc(Cl)c3)/C2=N/c2nc3ccccc3s2)cc1`, with over 100 µM.
The same measure, in the same setting: with `Fc1cc(C2=C[C@H](c3ccc(Cl)cc3)NC(=S)N2)c(Cl)cc1Cl` the figure was over 100 µM; with `CCCCc1ccc(Nc2nc(Cl)c3c(ncn3COCCOC(C)=O)n2)cc1`, 51.8 µM.

The subject of a further experiment is MCF7 breast. Briefly: NCI anticancer screen, dose series, 48 h.
The compound `O=S1(=O)c2cnccc2NC(=NCc2cccc3ccccc23)N1c1ccccc1` registered a TGI of over 100 µM.
Turning to `C[C@@]12C=CC3C/C(=N\C(N)=S)C=C(CCCC4OCCO4)[C@]3(CC1)C2` (stereo not given in full), the TGI turned out to be 26.4 µM.
In turn, `CCCCCC(=O)Nc1n[nH]nc1C(N)=O` had a TGI of over 100 µM.
For the compound `NC(=O)C(Nc1c(Cl)cccc1Cl)c1cc2cc(Br)ccc2nc1Cl` (stereo not given), the TGI was over 100 µM.
Same read-out and setting: then `COc1ccc(Br)c2c1CC(C(=O)O)CC2` (stereo not given), with over 100 µM; and `C/C(=N\N)C(CN(C)C)C(c1ccccc1)c1c(O)c2ccccc2oc1=O` (stereo not given), with over 100 µM; and `COc1ccc(/C=C2/C(C)=NN(c3cccc(Cl)c3)/C2=N/c2nc3ccccc3s2)cc1`, with 84.4 µM.
As for `Fc1cc(C2=C[C@H](c3ccc(Cl)cc3)NC(=S)N2)c(Cl)cc1Cl`, the TGI is over 100 µM.
With `CCCCc1ccc(Nc2nc(Cl)c3c(ncn3COCCOC(C)=O)n2)cc1`, the TGI worked out at 49.1 µM.

A further experiment has as its system SF-539 CNS. In words: NCI anticancer screen, dose series, 48 h.
On to `O=S1(=O)c2cnccc2NC(=NCc2cccc3ccccc23)N1c1ccccc1`, for which the TGI is over 100 µM.
`C[C@@]12C=CC3C/C(=N\C(N)=S)C=C(CCCC4OCCO4)[C@]3(CC1)C2` (stereo not given in full) had a TGI of 31.7 µM.
With `CCCCCC(=O)Nc1n[nH]nc1C(N)=O`, the TGI is over 100 µM.
For the compound `NC(=O)C(Nc1c(Cl)cccc1Cl)c1cc2cc(Br)ccc2nc1Cl` (stereo not given), the TGI is over 100 µM.
The same measure, in the same setting: then `COc1ccc(Br)c2c1CC(C(=O)O)CC2` (stereo not given), with over 100 µM; and `C/C(=N\N)C(CN(C)C)C(c1ccccc1)c1c(O)c2ccccc2oc1=O` (stereo not given), with over 100 µM; and `COc1ccc(/C=C2/C(C)=NN(c3cccc(Cl)c3)/C2=N/c2nc3ccccc3s2)cc1`, with 60.7 µM.
Compound `Fc1cc(C2=C[C@H](c3ccc(Cl)cc3)NC(=S)N2)c(Cl)cc1Cl` displayed a TGI of over 100 µM.
On the same count and under the same terms, with `CCCCc1ccc(Nc2nc(Cl)c3c(ncn3COCCOC(C)=O)n2)cc1` the figure was 53.4 µM.

A further experiment concerns MDA-N. Briefly: NCI anticancer screen, dose series, 48 h.
As to `O=S1(=O)c2cnccc2NC(=NCc2cccc3ccccc23)N1c1ccccc1`, the TGI stood at 26.9 µM.
Turning to `C[C@@]12C=CC3C/C(=N\C(N)=S)C=C(CCCC4OCCO4)[C@]3(CC1)C2` (stereo not given in full), the TGI worked out at 33.9 µM.
The compound `CCCCCC(=O)Nc1n[nH]nc1C(N)=O` came in with a TGI of over 100 µM.
On to `NC(=O)C(Nc1c(Cl)cccc1Cl)c1cc2cc(Br)ccc2nc1Cl` (stereo not given), for which the TGI was over 100 µM.
On the same count and under the same terms, with `COc1ccc(Br)c2c1CC(C(=O)O)CC2` (stereo not given) the figure was over 100 µM.
With `C/C(=N\N)C(CN(C)C)C(c1ccccc1)c1c(O)c2ccccc2oc1=O` (stereo not given), the TGI is over 100 µM.
Compound `COc1ccc(/C=C2/C(C)=NN(c3cccc(Cl)c3)/C2=N/c2nc3ccccc3s2)cc1` gave a TGI of 41.6 µM.
With `Fc1cc(C2=C[C@H](c3ccc(Cl)cc3)NC(=S)N2)c(Cl)cc1Cl`, the TGI was over 100 µM.
In turn, `CCCCc1ccc(Nc2nc(Cl)c3c(ncn3COCCOC(C)=O)n2)cc1` yielded a TGI of 34.4 µM.

The next experiment deals with OVCAR-5 ovarian. Briefly: NCI anticancer screen, dose series, 48 h.
Consider `O=S1(=O)c2cnccc2NC(=NCc2cccc3ccccc23)N1c1ccccc1`, for which the TGI is over 100 µM.
As to `C[C@@]12C=CC3C/C(=N\C(N)=S)C=C(CCCC4OCCO4)[C@]3(CC1)C2` (stereo not given in full), the TGI stood at 33.3 µM.
The compound `CCCCCC(=O)Nc1n[nH]nc1C(N)=O` had a TGI of over 100 µM.
As for `NC(=O)C(Nc1c(Cl)cccc1Cl)c1cc2cc(Br)ccc2nc1Cl` (stereo not given), the TGI was over 100 µM.
In turn, `COc1ccc(Br)c2c1CC(C(=O)O)CC2` (stereo not given) gave a TGI of over 100 µM.
Compound `C/C(=N\N)C(CN(C)C)C(c1ccccc1)c1c(O)c2ccccc2oc1=O` (stereo not given) registered a TGI of over 100 µM.
Same read-out and setting: with `COc1ccc(/C=C2/C(C)=NN(c3cccc(Cl)c3)/C2=N/c2nc3ccccc3s2)cc1` the figure was 69.6 µM; with `Fc1cc(C2=C[C@H](c3ccc(Cl)cc3)NC(=S)N2)c(Cl)cc1Cl`, over 100 µM; with `CCCCc1ccc(Nc2nc(Cl)c3c(ncn3COCCOC(C)=O)n2)cc1`, 37.5 µM.

A further experiment relates to HCT-15 colon. Briefly: NCI anticancer screen, dose series, 48 h.
Regarding `O=S1(=O)c2cnccc2NC(=NCc2cccc3ccccc23)N1c1ccccc1`, the TGI is over 100 µM.
`C[C@@]12C=CC3C/C(=N\C(N)=S)C=C(CCCC4OCCO4)[C@]3(CC1)C2` (stereo not given in full) returned a TGI of 53.6 µM.
`CCCCCC(=O)Nc1n[nH]nc1C(N)=O` gave a TGI of over 100 µM.
Consider `NC(=O)C(Nc1c(Cl)cccc1Cl)c1cc2cc(Br)ccc2nc1Cl` (stereo not given), for which the TGI is over 100 µM.
Compound `COc1ccc(Br)c2c1CC(C(=O)O)CC2` (stereo not given) showed a TGI of over 100 µM.
Compound `C/C(=N\N)C(CN(C)C)C(c1ccccc1)c1c(O)c2ccccc2oc1=O` (stereo not given) returned a TGI of over 100 µM.
For the compound `COc1ccc(/C=C2/C(C)=NN(c3cccc(Cl)c3)/C2=N/c2nc3ccccc3s2)cc1`, the TGI is 36.1 µM.
The compound `Fc1cc(C2=C[C@H](c3ccc(Cl)cc3)NC(=S)N2)c(Cl)cc1Cl` gave a TGI of over 100 µM.
As to `CCCCc1ccc(Nc2nc(Cl)c3c(ncn3COCCOC(C)=O)n2)cc1`, the TGI was determined as 30.7 µM.

For the next experiment, the system named is HS 578T breast. In words: NCI anticancer screen, dose series, 48 h.
Regarding `O=S1(=O)c2cnccc2NC(=NCc2cccc3ccccc23)N1c1ccccc1`, the TGI is over 100 µM.
`C[C@@]12C=CC3C/C(=N\C(N)=S)C=C(CCCC4OCCO4)[C@]3(CC1)C2` (stereo not given in full) gave a TGI of 72.5 µM.
Still for that read-out and setting: with `CCCCCC(=O)Nc1n[nH]nc1C(N)=O` the figure was over 100 µM; with `NC(=O)C(Nc1c(Cl)cccc1Cl)c1cc2cc(Br)ccc2nc1Cl` (stereo not given), over 100 µM.
In the case of `COc1ccc(Br)c2c1CC(C(=O)O)CC2` (stereo not given), the TGI is over 100 µM.
The compound `C/C(=N\N)C(CN(C)C)C(c1ccccc1)c1c(O)c2ccccc2oc1=O` (stereo not given) came in with a TGI of over 100 µM.
Consider `COc1ccc(/C=C2/C(C)=NN(c3cccc(Cl)c3)/C2=N/c2nc3ccccc3s2)cc1`, for which the TGI worked out at 66.1 µM.
Same read-out and setting: with `Fc1cc(C2=C[C@H](c3ccc(Cl)cc3)NC(=S)N2)c(Cl)cc1Cl` the figure was over 100 µM.
Compound `CCCCc1ccc(Nc2nc(Cl)c3c(ncn3COCCOC(C)=O)n2)cc1` had a TGI of 55.2 µM.
